Measurements published in patent US8415351B2 (priority 2007, dated 2013).
Where two headings read alike, the source gives them in different places.

How the values were obtained:
[1] = target: T1, HCV polymerase 1A (Δ21 NS5B, H77) (Hepatitis C virus genotype 1a, UniProt P27958); assay: biochemical
T1 construct: 20 to 50 nM Δ21 NS5B
In short: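 Radiometric assay with Δ21 NS5B (H77): 20 μM CTP, 20 μM ATP, 1 μM ^3H-UTP, 5 nM template RNA, 2–4 h at room temperature. RNA precipitated with spermine, filter-captured and counted. IC50 from non-linear fit of retained cpm vs inhibitor concentration (tight-binding equation).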

[2] = tested on: genotype 1b-Con1 subgenomic replicon cell line; assay: microbe, parasite or virus in culture; type: cell-based, HCV; details: read-out: EC50 1b
[3] = tested on: genotype 1a-H77 subgenomic replicon cell line; assay: microbe, parasite or virus in culture; type: cell-based, HCV; details: read-out: EC50 1a
[4] = target: T2, HCV polymerase 1B (Δ21 NS5B, BK) (Hepatitis C virus genotype 1b, UniProt P26663); assay: biochemical
T2 construct: 20 to 50 nM Δ21 NS5B
In short: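 Δ21 NS5B (genotype 1b, BK […]) preincubated 15 min RT with inhibitor, 2 mM MnCl2, pH 7.4, 60–125 μM GTP; started with 20 μM CTP/ATP, 1 μM 3H-UTP, 5 nM template RNA, run 2–4 h RT. Spermine-precipitated RNA filter-captured, scintillation counted; IC50 from tight-binding (Morrison) fit.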

T1 sequence (P27958 2421-2990, stated change not applied): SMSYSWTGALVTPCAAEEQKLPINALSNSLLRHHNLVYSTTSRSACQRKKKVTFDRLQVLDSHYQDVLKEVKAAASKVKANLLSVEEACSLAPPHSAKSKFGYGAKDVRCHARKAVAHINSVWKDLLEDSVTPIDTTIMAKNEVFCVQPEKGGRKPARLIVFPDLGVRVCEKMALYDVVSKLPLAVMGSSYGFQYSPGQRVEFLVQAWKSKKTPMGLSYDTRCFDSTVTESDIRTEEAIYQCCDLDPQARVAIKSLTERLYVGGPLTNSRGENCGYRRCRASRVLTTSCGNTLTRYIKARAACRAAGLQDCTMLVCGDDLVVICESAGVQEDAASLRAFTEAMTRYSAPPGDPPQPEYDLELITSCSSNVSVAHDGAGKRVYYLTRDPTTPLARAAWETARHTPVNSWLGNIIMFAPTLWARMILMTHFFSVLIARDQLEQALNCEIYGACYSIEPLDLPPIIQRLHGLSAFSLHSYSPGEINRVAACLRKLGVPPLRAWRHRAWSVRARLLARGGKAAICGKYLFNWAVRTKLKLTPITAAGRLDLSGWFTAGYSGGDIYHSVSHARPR
T2 sequence (P26663 2420-2989, stated change not applied): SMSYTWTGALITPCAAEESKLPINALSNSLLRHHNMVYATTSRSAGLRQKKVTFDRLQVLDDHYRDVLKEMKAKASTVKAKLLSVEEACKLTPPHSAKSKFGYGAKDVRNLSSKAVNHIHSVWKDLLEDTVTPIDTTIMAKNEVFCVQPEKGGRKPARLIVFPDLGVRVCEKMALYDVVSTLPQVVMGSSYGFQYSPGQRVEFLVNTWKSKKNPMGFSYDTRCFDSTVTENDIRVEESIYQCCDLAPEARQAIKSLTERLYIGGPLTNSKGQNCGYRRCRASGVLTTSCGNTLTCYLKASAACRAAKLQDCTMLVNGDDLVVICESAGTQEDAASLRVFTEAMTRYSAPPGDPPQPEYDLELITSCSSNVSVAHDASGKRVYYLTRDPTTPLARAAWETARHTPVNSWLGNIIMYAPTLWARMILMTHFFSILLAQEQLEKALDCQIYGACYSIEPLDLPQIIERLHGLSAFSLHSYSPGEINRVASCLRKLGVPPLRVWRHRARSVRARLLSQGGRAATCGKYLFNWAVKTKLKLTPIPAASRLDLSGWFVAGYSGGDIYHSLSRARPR

Row | Structure (SMILES) | IC50 ([1]; IC50 1a) [µM] | EC50 ([2]; Hepatitis C virus) [µM] | EC50 ([3]; Hepatitis C virus) [µM] | IC50 [4] [µM] | IC50 ([1]; read-out: IC50 1a) [µM] | EC50 ([2]; genotype 1b-Con1 replicon, luciferase reporter) [µM] | EC50 ([3]; genotype 1a-H77 replicon, luciferase reporter) [µM] | IC50 ([4]; HCV polymerase 1b, read-out: IC50 1b) [µM] | EC50 [2] [µM] | EC50 [3] [µM] | IC50 ([4]; read-out: IC50 1b, HCV polymerase 1b) [µM]
1 | COc1c(-c2ccc3c(c2)CCC3C(C)(C)NS(C)(=O)=O)cc(-n2ccc(=O)[nH]c2=O)cc1C(C)(C)C (centres unmarked) [IB-L0-2.29, N-(2-(5-(3-tert-butyl-5-(2,4-dioxo-3,4-dihydropyrimidin-1(2H)-yl)-2-methoxyphenyl)-2,3-dihydro-1H-inden-1-yl)propan-2-yl)methanesulfonamide] | 0.01 to 0.1 | 0.01 to 0.1 | 0.1 to 1 | 0.01 to 0.1 | – | – | – | – | – | – | –
2 | COc1c(C(=O)Nc2scc(CNS(C)(=O)=O)c2S(N)(=O)=O)cc(N2CCC(=O)NC2=O)cc1C(C)(C)C [IA-L3-1.90, 3-tert-butyl-5-(2,4-dioxotetrahydropyrimidin-1(2H)-yl)-2-methoxy-N-(4-(methylsulfonamidemethyl)-3-sulfamoylthiophen-2-yl)benzamide] | 0.01 to 0.1 | 0.1 to 1 | > 1 | 0.01 to 0.1 | – | – | – | – | – | – | –
3 | CC(C)(C)c1cc(N2CCC(=O)NC2=O)cc(C(=O)Nc2nccs2)c1O [IA-L3-1.104, 3-tert-butyl-5-(2,4-dioxotetrahydropyrimidin-1(2H)-yl)-2-hydroxy-N-(thiazol-2-yl)benzamide] | > 1 | > 1 | > 1 | 0.1 to 1 | – | – | – | – | – | – | –
4 | COc1c(C(=O)N[C@H]2CC[C@H](NS(C)(=O)=O)CC2)cc(N2CCC(=O)NC2=O)cc1C(C)(C)C [IA-L3-1.103, 3-tert-butyl-5-(2,4-dioxotetrahydropyrimidin-1(2H)-yl)-2-methoxy-N-((1r,4r)-4-(methylsulfon amido)cyclohexyl)benzamide] | – | – | – | – | 0.1 to 1 | > 1 | > 1 | > 1 | – | – | –
5 | COc1c(-c2ccsc2)cc(-n2ccc(=O)[nH]c2=O)cc1-c1ccc2c(c1)CC=C2CNS(C)(=O)=O [IB-L0-2.62, N-((6-(5-(2,4-dioxo-3,4-dihydropyrimidin-1(2H)-yl)-2-methoxy-3-(thiophen-3-yl)phenyl)-1H-inden-3-yl)methyl)methanesulfonamide] | 0.01 to 0.1 | 0.01 to 0.1 | 0.1 to 1 | 0.01 to 0.1 | – | – | – | – | – | – | –
6 | COc1c(C(=O)Nc2ccc(NS(C)(=O)=O)cc2)cc(N2CCC(=O)NC2=O)cc1C(C)(C)C [IA-L3-1.51] | 0.01 to 0.1 | 0.01 to 0.1 | 0.1 to 1 | 0.01 to 0.1 | – | – | – | – | – | – | –
7 | CCCC(=O)N(c1ccc(NC(=O)c2cc(N3CCC(=O)NC3=O)cc(C(C)(C)C)c2OC)cc1)S(C)(=O)=O [IA-L3-1.71, 3-tert-butyl-5-(2,4-dioxotetrahydropyrimidin-1(2H)-yl)-2-methoxy-N-(4-(N-(methylsulfonyl)butyramido)phenyl)benzamide] | 0.1 to 1 | 0.01 to 0.1 | 0.1 to 1 | > 1 | – | – | – | – | – | – | –
8 | COc1c(-c2ccc3c(c2)CCC3O)cc(-n2ccc(=O)[nH]c2=O)cc1C(C)(C)C (centres unmarked) [IB-L0-2.36, 1-(3-tert-butyl-5-(1-hydroxy-2,3-dihydro-1H-inden-5-yl)-4-methoxyphenyl)pyrimidine-2,4(1H,3H)-dione] | 0.01 to 0.1 | 0.01 to 0.1 | 0.1 to 1 | 0.1 to 1 | – | – | – | – | – | – | –
9 | COc1c(C(=O)Nc2ccc(NS(=O)(=O)c3c(C)noc3C)cc2)cc(N2CCC(=O)NC2=O)cc1C(C)(C)C [IA-L3-1.59, 3-tert-butyl-N-[4-(3,5-dimethyl-isoxazole-4-sulfonylamino)-phenyl]-5-(2,4-dioxo-tetrahydro-pyrimidin-1-yl)-2-methoxy-benzamide] | 0.1 to 1 | > 1 | > 1 | 0.01 to 0.1 | – | – | – | – | – | – | –
10 | COc1c(-c2ccc(/C(C)=N/NS(C)(=O)=O)cc2)cc(-n2ccc(=O)[nH]c2=O)cc1C(C)(C)C [IB-L0-1.5, (E)-N′-(1-(3′-tert-butyl-5′-(2,4-dioxo-3,4-dihydropyrimidin-1(2H)-yl)-2′-methoxybiphenyl-4-yl)ethylidene)methanesulfonohydrazide] | 0.01 to 0.1 | 0.01 to 0.1 | 0.01 to 0.1 | 0.01 to 0.1 | – | – | – | – | – | – | –
11 | COc1c(COc2ccc(NS(C)(=O)=O)cc2)cc(N2CCC(=O)NC2=O)cc1C(C)(C)C [IA-L6-1.1, N-(4-(3-tert-butyl-5-(2,4-dioxotetrahydropyrimidin-1(2H)-yl)-2-methoxybenzyloxy)phenyl)methanesulfonamide] | 0.01 to 0.1 | 0.01 to 0.1 | 0.1 to 1 | 0.1 to 1 | – | – | – | – | – | – | –
12 | COc1c(C#Cc2ccc(NS(C)(=O)=O)c(C(F)(F)F)c2)cc(N2CCC(=O)NC2=O)cc1C(C)(C)C [IA-L2-1.19, N-(4-((3-tert-butyl-5-(2,4-dioxotetrahydropyrimidin-1(2H)-yl)-2-methoxyphenyl)ethynyl)-2-(trifluoromethyl)phenyl)methanesulfonamide] | 0.1 to 1 | > 1 | > 1 | 0.01 to 0.1 | – | – | – | – | – | – | –
13 | CN(c1ccc(NC(=O)c2cc(N3CCC(=O)NC3=O)cc(C(C)(C)C)c2O)cc1)S(C)(=O)=O [IA-L3-1.4, 3-tert-butyl-5-(2,4-dioxotetrahydropyrimidin-1(2H)-yl)-2-hydroxy-N-(4-(N-methylmethylsulfonamido)phenyl)benzamide] | 0.1 to 1 | > 1 | > 1 | 0.01 to 0.1 | – | – | – | – | – | – | –
14 | COc1c(C#Cc2ccc(NS(C)(=O)=O)cc2C)cc(-n2ccc(=O)[nH]c2=O)cc1C(C)(C)C [IB-L2-1.1, N-(4-((3-tert-butyl-5-(2,4-dioxo-3,4-dihydropyrimidin-1(2H)-yl)-2-methoxyphenyl)ethynyl)-3-methylphenyl)methanesulfonamide] | < 0.01 | < 0.01 | < 0.01 | 0.01 to 0.1 | – | – | – | – | – | – | –
15 | COc1c(C#Cc2ccc(NS(C)(=O)=O)nc2)cc(N2CCC(=O)NC2=O)cc1C(C)(C)C [IA-L2-1.26, N-(5-((3-tert-butyl-5-(2,4-dioxotetrahydropyrimidin-1(2H)-yl)-2-methoxyphenyl)ethynyl)-pyridin-2-yl)methanesulfonamide 2,2,2-trifluoroacetate] | 0.01 to 0.1 | 0.01 to 0.1 | 0.01 to 0.1 | 0.01 to 0.1 | – | – | – | – | – | – | –
16 | CCc1cc(NS(C)(=O)=O)ccc1C#Cc1cc(N2CCC(=O)NC2=O)cc(C(C)(C)C)c1OC [IA-L2-1.11, N-(4-((3-tert-butyl-5-(2,4-dioxotetrahydropyrimidin-1(2H)-yl)-2-methoxyphenyl)ethynyl)-3-ethylphenyl)methanesulfonamide] | < 0.01 | < 0.01 | < 0.01 | 0.01 to 0.1 | – | – | – | – | – | – | –
17 | COc1c(C#Cc2ccc(NS(C)(=O)=O)cc2C(=O)N2CCOCC2)cc(-n2ccc(=O)[nH]c2=O)cc1C(C)(C)C [IB-L2-1.11, N-(4-((3-tert-butyl-5-(2,4-dioxo-3,4-dihydropyrimidin-1(2H)-yl)-2-methoxyphenyl)ethynyl)-3-(morpholine-4-carbonyl)phenyl)methanesulfonamide] | 0.01 to 0.1 | 0.01 to 0.1 | 0.1 to 1 | 0.01 to 0.1 | – | – | – | – | – | – | –
18 | COc1c(/C=C\c2ccc(NS(C)(=O)=O)cc2)cc(N2CCC(=O)NC2=O)cc1C(C)(C)C [IA-L1-1.20, (Z)—N-(4-(3-tert-butyl-5-(2,4-dioxotetrahydropyrimidin-1(2H)-yl)-2-methoxystyryl)phenyl)methanesulfonamide] | < 0.01 | – | – | – | – | – | – | – | 0.01 to 0.1 | 0.01 to 0.1 | 0.01 to 0.1
19 | CC(C)CS(=O)(=O)Nc1ccc(NC(=O)c2cc(N3CCC(=O)NC3=O)cc(C(C)(C)C)c2O)cc1 [IA-L3-1.7, 3-tert-butyl-5-(2,4-dioxotetrahydropyrimidin-1(2H)-yl)-2-hydroxy-N-(4-(2-methylpropylsulfonamido)phenyl)benzamide] | 0.1 to 1 | > 1 | > 1 | 0.01 to 0.1 | – | – | – | – | – | – | –
20 | CC(C)(C)c1cc(N2CCC(=O)NC2=O)cc(C(=O)Nc2ccc3ncccc3c2)c1O [IA-L3-2.1, 3-tert-butyl-5-(2,4-dioxotetrahydropyrimidin-1(2H)-yl)-2-hydroxy-N-(quinolin-6-yl)benzamide] | > 1 | > 1 | > 1 | 0.1 to 1 | – | – | – | – | – | – | –
21 | COc1c(-c2ccc3c(c2)CCC3(C)CNS(C)(=O)=O)cc(-n2ccc(=O)[nH]c2=O)cc1C(C)(C)C (centres unmarked) [IB-L0-2.25, N-((5-(3-tert-butyl-5-(2,4-dioxo-3,4-dihydropyrimidin-1(2H)-yl)-2-methoxyphenyl)-1-methyl-2,3-dihydro-1H-inden-1-yl)methyl)methanesulfonamide] | 0.01 to 0.1 | 0.01 to 0.1 | 0.1 to 1 | 0.01 to 0.1 | – | – | – | – | – | – | –
22 | Cc1noc(C)c1S(=O)(=O)Nc1ccc(NC(=O)c2cc(N3CCC(=O)NC3=O)cc(C(C)(C)C)c2O)cc1 [IA-L3-1.13, 3-tert-butyl-N-(4-(3,5-dimethylisoxazole-4-sulfonamido)phenyl)-5-(2,4-dioxotetrahydro-pyrimidin-1(2H)-yl)-2-hydroxybenzamide] | 0.1 to 1 | > 1 | > 1 | < 0.01 | – | – | – | – | – | – | –
23 | COc1c(C(=O)Nc2cc(CNS(C)(=O)=O)cs2)cc(N2CCC(=O)NC2=O)cc1C(C)(C)C [IA-L3-1.94, 3-tert-butyl-5-(2,4-dioxotetrahydropyrimidin-1(2H)-yl)-2-methoxy-N-(4-(methylsulfonamidomethyl)thiophen-2-yl)benzamide] | 0.1 to 1 | 0.1 to 1 | > 1 | 0.1 to 1 | – | – | – | – | – | – | –
